Assay results reported in ChEMBL document CHEMBL1152692, “Synthesis and evaluation of ligands for D2-like receptors: the role of common pharmacophoric groups” (Bioorg Med Chem, 2009).
Active and inactive are the calls of the source. The rule behind the calls is not given here.

Assays:
D(3) dopamine receptor [1] = molecular target: T1, D(3) dopamine receptor (Homo sapiens, UniProt P35462)
D(2) dopamine receptor [2] = molecular target: T2, D(2) dopamine receptor (Homo sapiens, UniProt P14416)
D(4) dopamine receptor = molecular target: T3, D(4) dopamine receptor (Homo sapiens, UniProt P21917)
T3 sequence (P21917 whole entry): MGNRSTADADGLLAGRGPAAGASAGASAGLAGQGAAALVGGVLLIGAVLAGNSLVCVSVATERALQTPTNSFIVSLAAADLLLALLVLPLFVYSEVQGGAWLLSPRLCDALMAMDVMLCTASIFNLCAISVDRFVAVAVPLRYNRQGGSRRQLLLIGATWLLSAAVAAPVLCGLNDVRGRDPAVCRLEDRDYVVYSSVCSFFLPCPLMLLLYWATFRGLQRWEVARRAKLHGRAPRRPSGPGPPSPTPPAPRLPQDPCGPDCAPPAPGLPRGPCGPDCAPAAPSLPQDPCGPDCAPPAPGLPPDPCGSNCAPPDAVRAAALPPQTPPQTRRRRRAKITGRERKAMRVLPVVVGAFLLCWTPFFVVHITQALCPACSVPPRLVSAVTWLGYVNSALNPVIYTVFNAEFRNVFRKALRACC

D(2) dopamine receptor [3] = molecular target: T2, D(2) dopamine receptor; remark: listed apart in the source
D(3) dopamine receptor [4] = molecular target: T1, D(3) dopamine receptor; remark: listed apart in the source
[5] = molecular target: T4, D(4) dopamine receptor (Homo sapiens) (UniProt P21917)
T4 sequence (whole entry): T3 sequence (P21917 whole entry)

T1 sequence (P35462 whole entry): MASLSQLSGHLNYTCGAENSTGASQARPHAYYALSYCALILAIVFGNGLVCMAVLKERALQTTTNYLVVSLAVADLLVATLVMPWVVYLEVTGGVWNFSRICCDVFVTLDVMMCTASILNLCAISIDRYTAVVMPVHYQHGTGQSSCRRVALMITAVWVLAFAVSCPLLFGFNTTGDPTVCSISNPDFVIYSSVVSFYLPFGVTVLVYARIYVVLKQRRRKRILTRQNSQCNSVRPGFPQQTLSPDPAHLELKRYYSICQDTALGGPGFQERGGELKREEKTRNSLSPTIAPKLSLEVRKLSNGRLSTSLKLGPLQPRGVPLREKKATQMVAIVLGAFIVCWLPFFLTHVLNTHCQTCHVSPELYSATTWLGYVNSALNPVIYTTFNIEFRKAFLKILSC
T2 sequence (P14416 whole entry): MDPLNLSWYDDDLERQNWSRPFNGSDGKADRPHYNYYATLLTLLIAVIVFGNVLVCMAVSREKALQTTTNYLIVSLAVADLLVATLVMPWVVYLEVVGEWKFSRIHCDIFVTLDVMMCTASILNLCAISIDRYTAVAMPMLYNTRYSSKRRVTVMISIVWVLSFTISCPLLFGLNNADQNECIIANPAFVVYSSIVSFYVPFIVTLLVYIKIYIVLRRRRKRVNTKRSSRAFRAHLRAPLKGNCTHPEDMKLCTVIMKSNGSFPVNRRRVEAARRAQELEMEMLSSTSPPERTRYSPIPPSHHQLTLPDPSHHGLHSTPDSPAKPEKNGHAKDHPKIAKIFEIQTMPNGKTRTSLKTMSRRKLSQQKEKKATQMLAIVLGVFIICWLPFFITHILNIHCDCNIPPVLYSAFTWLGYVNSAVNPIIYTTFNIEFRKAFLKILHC

SMILES	Ki (D(4) dopamine receptor) [nM]	Activity (D(2) dopamine receptor [3])	Activity (D(3) dopamine receptor [4])	Ki (D(3) dopamine receptor [1]) [nM]	Ki (D(2) dopamine receptor [2]) [nM]	Activity [5]
O=C(CN1C2CCC1CC(O)(c1ccc(Cl)cc1)C2)c1ccc(F)cc1 (stereo not drawn)	–	–	–	> 10000	–	–
Clc1ccc(N2CC3CC2CN3Cc2c[nH]c3ncccc23)cc1 (stereo not drawn)	69	–	–	11	62	–
OC1(c2ccc(Cl)cc2)CC2CCC(C1)N2CCc1c[nH]c2ccccc12 (stereo not drawn)	–	–	–	18	53	–
OC1(c2ccc(Cl)cc2)CC2CCC(C1)N2Cc1c[nH]c2ncccc12 (stereo not drawn)	–	–	–	–	588	–
O[C@]1(c2ccc(Cl)cc2)C[C@H]2CC[C@@H](C1)N2Cc1c[nH]c2ccccc12	3010	–	–	25	–	–
OC1(c2ccc(Cl)cc2)CCN(CCc2c[nH]c3ccccc23)C1 (stereo not drawn)	–	inactive	–	3070	–	inactive

Further lines, with some results ahead:

Ki (D(4) dopamine receptor) [nM]	Activity (D(2) dopamine receptor [3])	Activity (D(3) dopamine receptor [4])	SMILES	Ki (D(3) dopamine receptor [1]) [nM]	Ki (D(2) dopamine receptor [2]) [nM]	Activity [5]
816	inactive	–	OC1(c2ccc(Cl)cc2)CCN(Cc2c[nH]c3ccccc23)C1 (stereo not drawn)	2870	–	–
1210	inactive	inactive	OC1(c2ccc(Cl)cc2)CCN(Cc2c[nH]c3ncccc23)C1 (stereo not drawn)	–	–	–
56	–	–	c1cnc(N2CCN(Cc3c[nH]c4ncccc34)CC2)nc1	1500	1170	–
513	–	–	O=C(CCCN1CC2CC1N(c1ccc(Cl)cc1)C2)c1ccc(F)cc1 (stereo not drawn)	220	170	–
18.6	–	–	Clc1ccc(N2CCCN(Cc3c[nH]c4ncccc34)CC2)cc1	370	970	–
17	–	–	O=C(CCCN1CCN(c2ccc(Cl)cc2)CC1)c1ccc(F)cc1	–	–	–
